According to PubChem BioAssay (NCI):
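Interpolation was linear, between the two tested concentrations surrounding the appropriate level; five concentrations were tested over 48 hours in 96-well plates. TGI: total growth inhibition.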

What was measured:
Experiment in all cases: NCI tumour cell line growth inhibition, 48 h
HS 578T breast = system: HS 578T breast
HCC-2998 colon = system: HCC-2998 colon
SK-OV-3 ovarian = system: SK-OV-3 ovarian
HL-60(TB) leukemia = system: HL-60(TB) leukemia
NCI-H522 lung = system: NCI-H522 lung
KM12 colon = system: KM12 colon
M14 melanoma = system: M14 melanoma
IGROV1 ovarian = system: IGROV1 ovarian
MDA-MB-435 = system: MDA-MB-435
U251 CNS = system: U251 CNS
SK-MEL-2 melanoma = system: SK-MEL-2 melanoma
CCRF-CEM leukemia = system: CCRF-CEM leukemia
HOP-92 NSCLC = system: HOP-92 NSCLC
CAKI-1 renal = system: CAKI-1 renal
OVCAR-4 ovarian = system: OVCAR-4 ovarian
SF-268 CNS = system: SF-268 CNS
SR leukemia = system: SR leukemia
K-562 leukemia = system: K-562 leukemia
ACHN renal = system: ACHN renal
A498 renal = system: A498 renal
DU-145 prostate = system: DU-145 prostate
HCT-15 colon = system: HCT-15 colon
T-47D breast = system: T-47D breast
786-0 renal = system: 786-0 renal
COLO 205 colon = system: COLO 205 colon
HCT-116 colon = system: HCT-116 colon
NCI-H226 lung = system: NCI-H226 lung
NCI/ADR-RES ovarian = system: NCI/ADR-RES ovarian
MALME-3M melanoma = system: MALME-3M melanoma
UACC-257 melanoma = system: UACC-257 melanoma
SF-295 CNS = system: SF-295 CNS
UO-31 renal = system: UO-31 renal
TK-10 renal = system: TK-10 renal
HOP-62 NSCLC = system: HOP-62 NSCLC
EKVX NSCLC = system: EKVX NSCLC
OVCAR-3 ovarian = system: OVCAR-3 ovarian
NCI-H460 lung = system: NCI-H460 lung
OVCAR-5 ovarian = system: OVCAR-5 ovarian
MOLT-4 leukemia = system: MOLT-4 leukemia
LOX IMVI melanoma = system: LOX IMVI melanoma
OVCAR-8 ovarian = system: OVCAR-8 ovarian
PC-3 prostate = system: PC-3 prostate
SK-MEL-5 melanoma = system: SK-MEL-5 melanoma
SK-MEL-28 melanoma = system: SK-MEL-28 melanoma
SF-539 CNS = system: SF-539 CNS
MDA-N = system: MDA-N
BT-549 breast = system: BT-549 breast
NCI-H23 lung = system: NCI-H23 lung
HT29 colon = system: HT29 colon
MDA-MB-231 breast = system: MDA-MB-231 breast
RXF 393 renal = system: RXF 393 renal
SNB-75 CNS = system: SNB-75 CNS
RPMI-8226 leukemia = system: RPMI-8226 leukemia
MCF7 breast = system: MCF7 breast
SN12C renal = system: SN12C renal
SW-620 colon = system: SW-620 colon
SNB-19 CNS = system: SNB-19 CNS
UACC-62 melanoma = system: UACC-62 melanoma
A549 NSCLC = system: A549 NSCLC

Measured: TGI

CCOC(=O)[C@@H]1[C@@H]2NC(=O)N[C@@]1(C)Oc1ccccc12
not listed: A549 NSCLC
> 100 µM: all other assays above

CNC(=S)/C(C#N)=C(\N)N1CCN(C)CC1
not listed: OVCAR-4 ovarian | NCI-H460 lung | SK-MEL-28 melanoma
> 100 µM: all other assays above
